Reference: patent US20260297085A1, “1 H-PYRROLO[2,3-B]PYRIDIN-4-YL]-2-OXOPYRROLIDINE-3-CARBONITRILE DERIVATIVES AS TYROSINE KINASE 2 (TYK2) INHIBITORS FOR THE TREATMENT OF INFLAMMATORY DISEASES” (BIOGEN MA INC., priority 2023, published 2026)
Where a name gives a salt, the structure may show the parent alone.

Assays:
Details in all cases: JH1 kinase domain, ADP-Glo
[1] = biological target: T1, human JAK1 kinase domain (JH1) (Homo sapiens, UniProt P23458); experiment: JH1 biochemical assay for JAK1 (ADP-Glo kinase assay, recombinant JH1 catalytic domain, JAK3-342 peptide, 35 μM ATP)
T1 construct: recombinantly generated catalytic kinase (also known as JH1) domain of human JAK1, JAK2, JAK3 and TYK2
T1 sequence (P23458 875-1153 limits assumed): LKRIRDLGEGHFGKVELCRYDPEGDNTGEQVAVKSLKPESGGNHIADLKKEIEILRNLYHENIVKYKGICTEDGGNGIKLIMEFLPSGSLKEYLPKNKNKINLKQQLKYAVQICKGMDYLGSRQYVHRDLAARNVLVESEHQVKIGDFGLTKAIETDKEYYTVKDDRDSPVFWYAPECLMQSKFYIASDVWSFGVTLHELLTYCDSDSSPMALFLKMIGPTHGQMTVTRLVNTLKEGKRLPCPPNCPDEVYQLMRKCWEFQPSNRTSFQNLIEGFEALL
Outline: (§1)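 Reactions contain 50 μM peptide and run 100 minutes, with enzyme at 4, 0.2, 0.3 and 2 nM for JAK1, JAK2, JAK3 and TYK2. Generated ADP is read by luminescence; IC50 derives from normalized dose-response curves.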

[2] = biological target: T2, human JAK3 kinase domain (JH1) (Homo sapiens, UniProt P52333); experiment: JH1 biochemical assay for JAK3 (ADP-Glo kinase assay, recombinant JH1 catalytic domain, JAK3-974 peptide, 4 μM ATP)
T2 construct: recombinantly generated catalytic kinase (also known as JH1) domain of human JAK1, JAK2, JAK3 and TYK2
T2 sequence (P52333 822-1111 limits assumed): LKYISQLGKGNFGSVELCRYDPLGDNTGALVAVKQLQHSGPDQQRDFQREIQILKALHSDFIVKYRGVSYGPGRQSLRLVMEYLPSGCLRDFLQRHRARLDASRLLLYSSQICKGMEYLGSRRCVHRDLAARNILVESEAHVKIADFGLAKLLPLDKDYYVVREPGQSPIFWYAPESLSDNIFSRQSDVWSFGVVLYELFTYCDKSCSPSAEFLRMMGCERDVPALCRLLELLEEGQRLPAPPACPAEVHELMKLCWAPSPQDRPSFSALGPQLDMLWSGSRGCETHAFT
Outline: as §1

[3] = biological target: T3, human TYK2 kinase domain (JH1) (Homo sapiens, UniProt P29597); experiment: JH1 biochemical assay for TYK2 (ADP-Glo kinase assay, recombinant JH1 catalytic domain, JAK3-974 peptide, 10 μM ATP)
T3 construct: recombinantly generated catalytic kinase (also known as JH1) domain of human JAK1, JAK2, JAK3 and TYK2
T3 sequence (P29597 897-1176 limits assumed): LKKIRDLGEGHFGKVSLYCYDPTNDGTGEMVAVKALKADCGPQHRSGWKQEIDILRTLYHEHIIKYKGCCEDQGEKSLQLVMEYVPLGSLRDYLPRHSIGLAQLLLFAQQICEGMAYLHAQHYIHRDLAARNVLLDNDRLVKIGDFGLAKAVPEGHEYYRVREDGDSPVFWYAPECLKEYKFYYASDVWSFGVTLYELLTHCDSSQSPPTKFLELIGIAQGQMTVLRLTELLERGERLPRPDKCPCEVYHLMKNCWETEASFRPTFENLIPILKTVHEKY
Outline: as §1

[4] = biological target: T4, human JAK2 kinase domain (JH1) (Homo sapiens, UniProt O60674); experiment: JH1 biochemical assay for JAK2 (ADP-Glo kinase assay, recombinant JH1 catalytic domain, JAK3-974 peptide, 15 μM ATP)
T4 construct: recombinantly generated catalytic kinase (also known as JH1) domain of human JAK1, JAK2, JAK3 and TYK2
T4 sequence (O60674 849-1124 limits assumed): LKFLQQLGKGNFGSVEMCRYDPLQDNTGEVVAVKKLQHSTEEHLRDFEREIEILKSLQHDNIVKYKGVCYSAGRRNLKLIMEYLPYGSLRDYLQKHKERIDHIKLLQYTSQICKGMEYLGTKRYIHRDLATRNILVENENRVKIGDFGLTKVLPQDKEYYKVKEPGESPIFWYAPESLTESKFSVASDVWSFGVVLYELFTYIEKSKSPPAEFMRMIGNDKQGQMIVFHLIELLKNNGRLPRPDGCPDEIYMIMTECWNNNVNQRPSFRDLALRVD
Outline: as §1

Row | Compound | IC50 [1] [nM] | IC50 [2] [nM] | IC50 [3] [nM] | IC50 [4] [nM]
1 | Cc1nc(-c2cc3c(N4C[C@@H](C)[C@@](C#N)(C5CC5)C4=O)ccnn3c2)ccc1C#N [Example 119, 6-(4-((3R,4S)-3-cyano-3-cyclopropyl-4-methyl-2-oxopyrrolidin-1-yl)pyrrolo[1,2-b]pyridazin-6-yl)-2-methylnicotinonitrile trifluoroacetate] | 1000 to 5000 | 100 to 1000 | 20 to 50 | 1000 to 5000
2 | C[C@@H]1CN(c2ccnn3cc(-c4nccc(C(F)(F)F)n4)cc23)C(=O)[C@]1(C#N)C1CC1 [Example 120, (3R,4S)-3-cyclopropyl-4-methyl-2-oxo-1-(6-(4-(trifluoromethyl)pyrimidin-2-yl)pyrrolo[1,2-b]pyridazin-4-yl)pyrrolidine-3-carbonitrile trifluoroacetate] | 5000 to 10000 | 1000 to 5000 | > 100 | > 10000
3 | C[C@@H]1CN(c2ccnn3cc(-c4cc(C(F)(F)F)ncn4)cc23)C(=O)[C@]1(C#N)C1CC1 [Example 121, (3R,4S)-3-cyclopropyl-4-methyl-2-oxo-1-(6-(6-(trifluoromethyl)pyrimidin-4-yl)pyrrolo[1,2-b]pyridazin-4-yl)pyrrolidine-3-carbonitrile trifluoroacetate] | 1000 to 5000 | 1000 to 5000 | > 100 | 5000 to 10000
4 | COc1ccnc(-c2cc3c(N4C[C@@H](C)[C@@](C#N)(C5CC5)C4=O)ccnn3c2)n1 [Example 122, (3R,4S)-3-cyclopropyl-1-(6-(4-methoxypyrimidin-2-yl)pyrrolo[1,2-b]pyridazin-4-yl)-4-methyl-2-oxopyrrolidine-3-carbonitrile trifluoroacetate] | 5000 to 10000 | > 10000 | > 100 | > 10000
5 | C[C@@H]1CN(c2ccnn3cc(-c4nccn5ccnc45)cc23)C(=O)[C@]1(C#N)C1CC1 [Example 123, (3R,4S)-3-cyclopropyl-1-(6-(imidazo[1,2-a]pyrazin-8-yl)pyrrolo[1,2-b]pyridazin-4-yl)-4-methyl-2-oxopyrrolidine-3-carbonitrile trifluoroacetate] | > 10000 | > 10000 | > 100 | > 10000
6 | COc1cncc(-c2cc3c(N4C[C@@H](C)[C@@](C#N)(C5CC5)C4=O)ccnn3c2)n1 [Example 126, (3R,4S)-3-cyclopropyl-1-(6-(6-methoxypyrazin-2-yl)pyrrolo[1,2-b]pyridazin-4-yl)-4-methyl-2-oxopyrrolidine-3-carbonitrile trifluoroacetate] | 100 to 1000 | 100 to 1000 | 20 to 50 | 100 to 1000
7 | C[C@@H]1CN(c2ccnn3cc(-c4nccc(O)c4C#N)cc23)C(=O)[C@]1(C#N)C1CC1 [Example 129, 2-(4-((3R,4S)-3-cyano-3-cyclopropyl-4-methyl-2-oxopyrrolidin-1-yl)pyrrolo[1,2-b]pyridazin-6-yl)-4-hydroxynicotinonitrile trifluoroacetate] | > 10000 | > 10000 | > 100 | > 10000
8 | CC(O)c1ccc(-c2cc3c(N4C[C@@H](C)[C@@](C#N)(C5CC5)C4=O)ccnn3c2)nc1 (stereo partly drawn) [Example 130, (3R,4S)-3-cyclopropyl-1-(6-(5-(1-hydroxyethyl)pyridin-2-yl)pyrrolo[1,2-b]pyridazin-4-yl)-4-methyl-2-oxopyrrolidine-3-carbonitrile trifluoroacetate] | 100 to 1000 | 100 to 1000 | 5 to 20 | 100 to 1000
9 | COc1cnc(-c2cc3c(N4C[C@@H](C)[C@@](C#N)(C5CC5)C4=O)ccnn3c2)cn1 [Example 132, (3R,4S)-3-cyclopropyl-1-(6-(5-methoxypyrazin-2-yl)pyrrolo[1,2-b]pyridazin-4-yl)-4-methyl-2-oxopyrrolidine-3-carbonitrile trifluoroacetate] | 1000 to 5000 | 1000 to 5000 | 50 to 100 | 1000 to 5000
10 | COc1cnc(-c2cc3c(N4C[C@@H](C)[C@@](C#N)(C5CC5)C4=O)ccnn3c2)nc1 [Example 136, (3R,4S)-3-cyclopropyl-1-(6-(5-methoxypyrimidin-2-yl)pyrrolo[1,2-b]pyridazin-4-yl)-4-methyl-2-oxopyrrolidine-3-carbonitrile trifluoroacetate] | 1000 to 5000 | 1000 to 5000 | 50 to 100 | 5000 to 10000
11 | Cc1ccc(-c2cc3c(N4C[C@@H](C)[C@@](C#N)(C5CC5)C4=O)ccnn3c2)nn1 [Example 137, (3R,4S)-3-cyclopropyl-4-methyl-1-(6-(6-methylpyridazin-3-yl)pyrrolo[1,2-b]pyridazin-4-yl)-2-oxopyrrolidine-3-carbonitrile trifluoroacetate] | 1000 to 5000 | 100 to 1000 | 20 to 50 | 100 to 1000
12 | C[C@@H]1CN(c2ccnn3cc(-c4ncccc4F)cc23)C(=O)[C@]1(C#N)C1CC1 [Example 138, (3R,4S)-3-cyclopropyl-1-(6-(3-fluoropyridin-2-yl)pyrrolo[1,2-b]pyridazin-4-yl)-4-methyl-2-oxopyrrolidine-3-carbonitrile trifluoroacetate] | 100 to 1000 | 1000 to 5000 | 20 to 50 | > 10000

The next lines start with the values.

Row | IC50 [1] [nM] | IC50 [2] [nM] | IC50 [3] [nM] | IC50 [4] [nM] | Compound
13 | 100 to 1000 | 100 to 1000 | 20 to 50 | 1000 to 5000 | C[C@@H]1CN(c2ccnn3cc(-c4cnc5cnccn45)cc23)C(=O)[C@]1(C#N)C1CC1 [Example 116, (3R,4S)-3-cyclopropyl-1-(6-(imidazo[1,2-a]pyrazin-3-yl)pyrrolo[1,2-b]pyridazin-4-yl)-4-methyl-2-oxopyrrolidine-3-carbonitrile trifluoroacetate]
14 | 1000 to 5000 | 1000 to 5000 | 20 to 50 | 1000 to 5000 | C[C@@H]1CN(c2ccnn3cc(-c4ncc(C#N)s4)cc23)C(=O)[C@]1(C#N)C1CC1 [Example 117, 2-(4-((3R,4S)-3-cyano-3-cyclopropyl-4-methyl-2-oxopyrrolidin-1-yl)pyrrolo[1,2-b]pyridazin-6-yl)thiazole-5-carbonitrile trifluoroacetate]
15 | 100 to 1000 | 100 to 1000 | 20 to 50 | 100 to 1000 | C[C@@H]1CN(c2ccnn3cc(-c4cccc(CC#N)n4)cc23)C(=O)[C@]1(C#N)C1CC1 [Example 125, (3R,4S)-1-(6-(6-(cyanomethyl)pyridin-2-yl)pyrrolo[1,2-b]pyridazin-4-yl)-3-cyclopropyl-4-methyl-2-oxopyrrolidine-3-carbonitrile trifluoroacetate]
16 | 1000 to 5000 | 1000 to 5000 | 20 to 50 | 1000 to 5000 | C[C@@H]1CN(c2ccnn3cc(-c4cncc(C#N)n4)cc23)C(=O)[C@]1(C#N)C1CC1 [Example 133, 6-(4-((3R,4S)-3-cyano-3-cyclopropyl-4-methyl-2-oxopyrrolidin-1-yl)pyrrolo[1,2-b]pyridazin-6-yl)pyrazine-2-carbonitrile trifluoroacetate]
17 | 1000 to 5000 | 1000 to 5000 | > 100 | > 10000 | C[C@@H]1CN(c2ccnn3cc(-c4ncccn4)cc23)C(=O)[C@]1(C#N)C1CC1 [Example 139, ((3R,4S)-3-cyclopropyl-4-methyl-2-oxo-1-(6-(pyrimidin-2-yl)pyrrolo[1,2-b]pyridazin-4-yl)pyrrolidine-3-carbonitrile trifluoroacetate]
